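1) Cells in 96-well plates. 2) Compound, 48 h, 5 concentrations. 3) Linear interpolation between surrounding doses. 4) Unreached endpoint = highest concentration. Here, GI50 denotes the concentration required for 50% inhibition of growth.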 The source made the active and inactive calls. No stated cut-off is given here; in the data, active = GI50 up to about 1.1 µM and inactive = higher.
What was measured:
Assay in all cases: NCI-60 cell line screen, 48 h
[1] = system: A498
[2] = system: CAKI-1
[3] = system: CCRF-CEM
[4] = system: EKVX
[5] = system: HCC 2998
[6] = system: MCF7
[7] = system: MDA-MB-231
[8] = system: MDA-MB-435
[9] = system: MOLT-4
[10] = system: NCI-H522
[11] = system: SF-295
[12] = system: SK-MEL-28
[13] = system: SK-MEL-2
[14] = system: SR
[15] = system: UACC-257
[16] = system: HOP-62
[17] = system: NCI/ADR-RES
[18] = system: OVCAR-8
[19] = system: 786-0
[20] = system: Hs-578T

Measured: GI50

CC(=O)OCC1OC(N2C(=O)NC(=O)C3C=C4CCCCC4=CC32)C(OC(C)=O)C1OC(C)=O (stereo not given)
inactive: [1] > 100 µM | [2] > 100 µM | [3] > 100 µM | [4] > 100 µM | [5] > 100 µM | [6] > 100 µM | [7] > 100 µM | [8] > 100 µM | [9] > 100 µM | [10] > 100 µM | [11] > 100 µM | [12] > 100 µM | [13] > 100 µM | [14] > 100 µM | [15] > 100 µM

COc1ccccc1Cc1nc(-c2ccccc2)nn(C2OC(COC(C)=O)C(OC(C)=O)C(OC(C)=O)C2OC(C)=O)c1=S (stereo not given)
inactive: [1] 10.2 µM | [2] 16.8 µM | [3] > 100 µM | [4] 25.1 µM | [5] > 24.8 µM | [16] 10.1 µM | [6] 6.84 µM | [9] > 60 µM | [10] 6.5 µM | [17] 9.1 µM | [18] 5.64 µM | [11] 8.15 µM | [12] 49.2 µM | [13] 11.3 µM | [15] 54.3 µM

COc1ccc(/C=C2\CCNC2=O)cc1
inactive: [1] > 53.7 µM | [2] > 100 µM | [3] > 100 µM | [4] > 29.4 µM | [5] > 48.5 µM | [16] 40.6 µM | [6] > 100 µM | [9] > 100 µM | [10] > 100 µM | [17] > 100 µM | [18] > 100 µM | [11] > 100 µM | [12] > 100 µM | [13] > 100 µM | [15] > 100 µM

Cn1c(=O)c2c3oc(=O)cc(O)c3c(=O)n3c4ccccc4n(c1=O)c23
inactive: [19] 33.3 µM | [1] 23.9 µM | [2] 32.3 µM | [3] 29.2 µM | [4] 57.3 µM | [5] 42.6 µM | [16] > 100 µM | [9] 33.3 µM | [18] 40.9 µM | [11] > 100 µM | [13] 23.4 µM | [14] 20.4 µM | [15] 26.1 µM

O=NN1CCN=C1c1ccc([N+](=O)[O-])cc1
inactive: [19] > 100 µM | [2] > 100 µM | [5] > 100 µM | [16] > 100 µM | [9] > 100 µM | [10] > 100 µM | [18] > 100 µM | [11] > 100 µM | [12] > 100 µM | [14] > 100 µM | [15] > 100 µM

COc1cc2c(cc1OC)/C(=C\c1ccccc1N)C(=O)OC2
inactive: [19] 3.07 µM | [2] 12 µM | [3] 2.05 µM | [4] 25 µM | [5] 23.3 µM | [16] 23.3 µM | [9] 2.31 µM | [10] 1.56 µM | [18] > 10 µM | [11] 15.1 µM | [12] 17 µM | [13] 12.1 µM | [15] 15.1 µM

Cc1cc2c(cc1C)N1Cc3c(ccc(C)c3C)N(C2)C1.Cc1cc2c(cc1C)N1Cc3cc(C)c(C)cc3N(C2)C1
inactive: [19] > 100 µM | [3] > 100 µM | [4] > 100 µM | [5] > 100 µM | [16] 74.5 µM | [9] > 100 µM | [10] 53.6 µM | [18] > 100 µM | [11] 89.5 µM | [12] > 100 µM

Cc1nc2c(sc(=S)n2-c2ccccc2)c(=O)[nH]1
inactive: [1] > 100 µM | [3] > 100 µM | [5] > 100 µM | [16] > 100 µM | [9] > 100 µM | [10] > 100 µM | [18] > 100 µM | [11] > 100 µM | [12] > 100 µM | [13] > 100 µM | [14] > 100 µM | [15] > 100 µM

CCCCCCCCC(O)c1ccc(/C=C\C(O)CCCC(=O)O)s1 (stereo not given)
inactive: [19] > 100 µM | [3] > 100 µM | [4] > 100 µM | [5] > 100 µM | [9] > 100 µM | [10] > 100 µM | [18] > 100 µM | [11] > 100 µM | [12] > 100 µM | [13] > 100 µM | [14] > 100 µM | [15] > 100 µM

O=c1c(-c2ccc(O)cc2)coc2cc(O)cc(O)c12 [GENISTEIN]
inactive: [19] 43.2 µM | [3] > 10 µM | [4] 63.1 µM | [5] > 100 µM | [20] 65.2 µM | [6] > 100 µM | [8] > 100 µM | [9] 40.4 µM | [10] 36.4 µM | [17] > 100 µM | [18] > 100 µM | [11] 55 µM | [12] > 100 µM | [14] 56.8 µM

From ChEMBL document CHEMBL1201862, “PubChem BioAssay data set” (2004)
